Reference: DBAASP
Values after ≈ are worked out from the molar mass of the structure shown. Values joined by “and” are separate entries in the source; they are usually repeats but may differ in a detail not shown here. Identical values can stand only once. Values belong to the compound of their own block, whether it stands above or below them.

Legend:
Test in all cases: ≥ marks a high value that may be exact or a test limit, other limits are often not marked, values filed in µg/mL are converted to µM
[1] = tested on: Cronobacter muytjensii ATCC 51329
[2] = tested on: Cronobacter sakazakii ATCC BAA-894
[3] = tested on: Cronobacter sakazakii DPC 6440
[4] = tested on: Cronobacter sakazakii DSM 4485
[5] = tested on: Escherichia coli NCIMB 11843
Escherichia coli O111 = tested on: Escherichia coli O111
Escherichia coli O157:H7 = tested on: Escherichia coli O157:H7
[6] = tested on: Klebsiella pneumoniae NCIMB 13218
[7] = tested on: Listeria monocytogenes NCTC 11994
[8] = tested on: Pseudomonas fluorescens NCIMB 9046
[9] = tested on: Pseudomonas putida ATCC 49128
[10] = tested on: Salmonella enterica subsp. enterica serovar Typhimurium DT104
[11] = tested on: Salmonella enterica subsp. enterica serovar Typhimurium LT2
[12] = tested on: Staphylococcus aureus NCTC 7428
[13] = tested on: Staphylococcus aureus NCTC 8325-4
[14] = tested on: Staphylococcus aureus Newman
[15] = tested on: Staphylococcus aureus RF122
[16] = tested on: Staphylococcus aureus RN4220
[17] = tested on: Staphylococcus aureus SA113
[18] = tested on: Acinetobacter baumannii NM109
[19] = tested on: Acinetobacter baumannii NM124
[20] = tested on: Acinetobacter baumannii NM35
[21] = tested on: Acinetobacter baumannii NM75
[22] = tested on: Acinetobacter baumannii NM8
[23] = tested on: Candida albicans ATCC 90028
[24] = tested on: Enterococcus faecalis ATCC 29212
[25] = tested on: Escherichia coli ATCC 25726
[26] = tested on: Klebsiella pneumoniae ATCC 700603
[27] = tested on: Pseudomonas aeruginosa ATCC 27853
[28] = tested on: Staphylococcus aureus 145/08
[29] = tested on: Staphylococcus aureus ATCC 25923
[30] = tested on: Staphylococcus epidermidis RP62A/1
[31] = tested on: Staphylococcus epidermidis RP62A
[32] = tested on: Staphylococcus epidermidis T37/8
[33] = tested on: Staphylococcus epidermidis T6/19
[34] = tested on: Stenotrophomonas maltophilia B32/1
[35] = tested on: Stenotrophomonas maltophilia B32/4
[36] = tested on: Stenotrophomonas maltophilia B5/5
[37] = tested on: Stenotrophomonas maltophilia B6/2
[38] = tested on: Stenotrophomonas maltophilia U8908
[39] = tested on: Bacillus subtilis KCTC 3068
[40] = tested on: Enterococcus faecalis KCTC 2011
[41] = tested on: Escherichia coli ATCC 25922
[42] = tested on: Escherichia coli KCTC 1682
[43] = tested on: Proteus vulgaris KCTC 2433
[44] = tested on: Pseudomonas aeruginosa KCTC 1637
[45] = tested on: Salmonella typhimurium KCTC 1926
[46] = tested on: Staphylococcus aureus KCTC 1621
[47] = tested on: Staphylococcus epidermidis ATCC 12228
[48] = tested on: Staphylococcus epidermidis KCTC 1917
Escherichia coli MG1655 = tested on: Escherichia coli MG1655
[49] = tested on: Pseudomonas aeruginosa PA7
[50] = tested on: Pseudomonas aeruginosa PAO1
[51] = tested on: Staphylococcus aureus NCTC 8325

MIC [1]: ≥ 625 µM
MIC [2]: ≥ 625 µM
MIC [3]: ≥ 625 µM
MIC [4]: ≥ 625 µM
MIC [5]: ≥ 1250 µM
MIC (Escherichia coli O111): ≥ 1910 µM
MIC (Escherichia coli O157:H7): ≥ 1910 µM
MIC [6]: ≥ 1250 µM
MIC [7]: ≥ 953 µM
MIC [8]: ≥ 1250 µM
MIC [9]: ≥ 953 µM
MIC [10]: ≥ 1910 µM
MIC [11]: ≥ 1250 µM
MIC [12]: ≥ 1910 µM
MIC [13]: ≥ 1250 µM
MIC [14]: ≥ 1250 µM
MIC [15]: ≥ 1250 µM
MIC [16]: ≥ 1250 µM
MIC [17]: ≥ 1250 µM
SMILES: CC[C@H](C)[C@H](N)C(=O)N[C@@H](CCCCN)C(=O)N[C@@H](Cc1cnc[nH]1)C(=O)N[C@@H](CCC(N)=O)C(=O)NCC(=O)N[C@@H](CC(C)C)C(=O)N1CCC[C@H]1C(=O)N[C@@H](CCC(N)=O)C(=O)N[C@@H](CCC(=O)O)C(=O)O [IKHQGLPQE]

MIC [18]: 5 µM (≈ 15 µg/mL)
MIC [19]: 2.5 µM (≈ 7.52 µg/mL)
MIC [20]: 2.5 µM (≈ 7.52 µg/mL)
MIC [21]: 2.5 µM (≈ 7.52 µg/mL)
MIC [22]: 2.5 µM (≈ 7.52 µg/mL)
MIC [23]: ≥ 80 µM
MIC [24]: 5 µM (≈ 15 µg/mL)
MIC [25]: 2.5 µM (≈ 7.52 µg/mL)
MIC [26]: 5 µM (≈ 15 µg/mL)
MIC [27]: 10 µM (≈ 30.1 µg/mL)
MIC [28]: 2.5 µM (≈ 7.52 µg/mL)
MIC [29]: 2.5 µM (≈ 7.52 µg/mL)
MIC [30]: 1.25 µM (≈ 3.76 µg/mL)
MIC [31]: 1.25 µM (≈ 3.76 µg/mL)
MIC [32]: 1.25 µM (≈ 3.76 µg/mL)
MIC [33]: 1.25 µM (≈ 3.76 µg/mL)
MIC [34]: 2.5 µM (≈ 7.52 µg/mL)
MIC [35]: 1.25 µM (≈ 3.76 µg/mL)
MIC [36]: 2.5 µM (≈ 7.52 µg/mL)
MIC [37]: 1.25 µM (≈ 3.76 µg/mL)
MIC [38]: 2.5 µM (≈ 7.52 µg/mL)
SMILES: CC[C@H](C)[C@H](NC(=O)[C@H](C)NC(=O)[C@@H](NC(=O)[C@H](C)NC(=O)CNC(=O)[C@H](CCCCN)NC(=O)[C@@H](NC(=O)[C@H](C)NC(=O)CNC(=O)[C@H](CCCCN)NC(=O)[C@H](CC(C)C)NC(=O)[C@@H](NC(=O)[C@H](CCCCN)NC(=O)[C@H](CCCCN)NC(=O)[C@H](CC(C)C)NC(=O)[C@@H](NC(=O)[C@H](CCCCN)NC(=O)[C@H](CCCCN)NC(=O)[C@@H](NC(=O)[C@H](CCCCN)NC(=O)[C@@H]1CCCN1C(=O)[C@H](CO)NC(=O)[C@H](CC(C)C)NC(=O)[C@H](CCCCN)NC(=O)[C@@H](N)CC(C)C)[C@@H](C)O)[C@@H](C)O)C(C)C)[C@@H](C)CC)[C@@H](C)CC)C(=O)N[C@@H](C)C(=O)N[C@@H](CO)C(=O)N[C@@H](CCSC)C(=O)N[C@@H](C)C(=O)O [LKLSPKTKKTLKKVLKGAIKGAIAIASMA]

MIC [39]: 8 µM (≈ 20 µg/mL)
MIC [40]: 16 µM (≈ 40.1 µg/mL)
MIC [41]: 8 µM and 20 µM
MIC [42]: ≥ 32 µM
MIC [43]: ≥ 45.3 µM
MIC [44]: ≥ 32 µM
MIC [45]: 22.6 µM (≈ 56.7 µg/mL)
MIC [46]: 22.6 µM (≈ 56.7 µg/mL)
MIC [47]: 20 µM and 40 µM
MIC [48]: 16 µM (≈ 40.1 µg/mL)
SMILES: CC[C@H](C)[C@H](NC(=O)CN)C(=O)NCC(=O)N[C@@H](CCCCN)C(=O)N[C@@H](Cc1c[nH]c2ccccc12)C(=O)N[C@@H](CC(C)C)C(=O)N[C@@H](Cc1cnc[nH]1)C(=O)N[C@@H](CO)C(=O)N[C@@H](C)C(=O)N[C@@H](CCCCN)C(=O)N[C@@H](CCCCN)C(=O)N[C@@H](Cc1ccccc1)C(=O)NCC(=O)N[C@@H](CCCCN)C(=O)N[C@@H](C)C(=O)N[C@@H](Cc1ccccc1)C(=O)N[C@H](C(=O)NCC(=O)N[C@@H](CCC(=O)O)C(=O)N[C@H](C(=O)N[C@@H](CCSC)C(=O)N[C@@H](CC(N)=O)C(=O)N[C@@H](CO)C(=O)O)[C@@H](C)CC)C(C)C [GIGKWLHSAKKFGKAFVGEIMNS]

MIC (Escherichia coli MG1655): 2 µM (≈ 5.18 µg/mL)
MIC [49]: 16 µM (≈ 41.4 µg/mL)
MIC [50]: 16 µM (≈ 41.4 µg/mL)
MIC [51]: ≥ 181 µM
SMILES: CC[C@H](C)[C@H](NC(=O)[C@@H](N)CCCCN)C(=O)N1CCC[C@H]1C(=O)N1CCC[C@H]1C(=O)N[C@H](C(=O)N[C@H](C(=O)N[C@@H](CCCCN)C(=O)N[C@@H](CC(=O)O)C(=O)N[C@H](C(=O)N[C@@H](CC(C)C)C(=O)N[C@@H](CCCCN)C(=O)N[C@@H](CCCCN)C(=O)N[C@H](C(=O)N[C@@H](C)C(=O)N[C@@H](CCCCN)C(=O)NCC(=O)N[C@H](C(=O)N[C@@H](CC(C)C)C(=O)N[C@@H](CO)C(=O)N[C@@H](C)C(=O)N[C@H](C(=O)N[C@@H](C)C(=O)NCC(=O)N[C@@H](C)C(=O)N[C@@H](CC(C)C)C(=O)N[C@@H](CO)C(=O)O)C(C)C)C(C)C)C(C)C)[C@@H](C)O)C(C)C)C(C)C [KIPPVVKDTLKKVAKGVLSAVAGALS]
